“Also recorded” adds a separate entry of the source. Where two headings read alike, the source gives them in different places.
Key:
Format in all cases: in vivo, Wistar rat
[1] = test system: HCHF diet-induced obese rats; assay: Diet-induced obesity and metabolic syndrome, high carbohydrate high fat (HCHF) fed rats
Description: Selective PAR2 antagonist 52 was used to evaluate the therapeutic potential of PAR2 antagonism in regulating adiposity, adipose tissue inflammation and metabolic function in rats fed a diet high in carbohydrates and fats (HCHF). Weekly body weight measurements (0-16 weeks) were recorded for Corn Starch CS (●) and High Carbohydrate High Fat (HCHF) (∘)-fed rats (FIG. 13A), as well as for HCHF (∘) and HCHF+PAR2 antagonist 52 (▴)-treated rats (FIG. 13B). In addition, weekly waist circumference measurements were recorded for CS (●), HCHF (∘), HCHF+PAR2 antagonist 52 (▴)-treated rats (FIG. 13 C). FIG. 13 D illustrates […] body composition measurements in CS (▪), HCHF ( ? ), HCHF+PAR2 antagonist 52 (□)-treated rats.
Relative to rats fed a lean diet containing only corn starch (CS), those receiving the HCHF diet for 16 weeks become obese, gaining 54±4% body weight and 206±43% total fat mass, particularly visceral (abdominal) fat from week 0 to 16 (FIGS. 13A-G). FIG. 13F is an image of the abdominal fat pad at 16 weeks in rat given HCHF diet for 16 weeks, but no treatment. […] The increase in PAR2 expression in adipose tissue (FIG. 14A) and its two component fractions, adipocytes and stromal vascular cell (SVC) fractions (FIG. 14B), were all elevated by HCHF feeding, positively correlating with increased adiposity. Local adipose tissue inflammation was also elevated by HCHF feeding (FIG. 15A-F). Findings indicate that a different endogenous signal—saturated fatty acids such as palmitic acid consumed in a HCHF diet—can prime macrophages to increase their expression of PAR2.
The regulation of metabolic parameters by PAR2 antagonist 52 were measured in diet-induced obese rats including systolic blood pressure measurements in CS (●), HCHF (∘) and HCHF+52 (▴)-treated rats (FIG. 16 A), oral glucose tolerance in CS (●), HCHF (∘) and HCHF+PAR2 antagonist 52 (▴)-treated rats (FIG. 16 B), insulin tolerance in CS (●), HCHF (∘), HCHF+PAR2 antagonist 52 (▴)-treated rats (FIG. 16 C), plasma lipid concentrations in CS, HCHF and HCHF+PAR2 antagonist 52-treated rats (FIG. 16 D and plasma liver enzymes in CS, HCHF and HCHF+52-treated rats (FIG. 16 E, *P<0.05 vs CS; **P<0.05 vs HCHF).
FIGS. 17A-C show representative images (20× magnification) of hepatocyte ultrastructure and fat deposition in CS (A), HCHF (B) and HCHF+PAR2 antagonist 52 (C)-treated rats. […] FIG. 17E illustrates metabolic genes in rat liver of different groups. […] Expression of mRNA in was normalized against 18s rRNA and fold change was calculated relative to CS samples. Error bars are means±SEM; *P<0.05, **P<0.01, ***P<0.001.
Regulation of cardiovascular structure and function by PAR2 antagonist 52 in diet-induced obese rats was also measured (FIG. 18), including diastolic stiffness constant measurements in CS, HCHF, HCHF+ compound 52-treated rats (FIG. 18A) and echocardiographic characterization of cardiac structure in CS, HCHF (at 8 weeks before treatment), HCHF and HCHF+ compound 52-treated rats FIG. 18B. FIGS. 18C and D show echocardiographic characterization of cardiac function in CS, HCHF (at 8 weeks before treatment), HCHF and HCHF+ compound 52-treated rats. FIGS. 18E-G illustrate vascular organ bath responses for noradrenaline (E), sodium nitroprusside (F) and acetylcholine (G) in CS (●), HCHF (∘) and HCHF+[…] (▾)-treated rats. Representative images (40× magnification) of interstitial collagen deposition in the left ventricle of CS(H), HCHF (I) and HCHF+PAR2 antagonist 52 (J)-treated rats. FIGS. 18 K and L are graphical representations of the area of collagen deposition in perivascular (K) and interstitial (L) region of the left ventricle. *P<0.05 vs CS; **P<0.05 vs HCHF.

[2] = Pharmacokinetics, single oral dose
Description: (§1) Male Wistar rats were surgically implanted with a jugular vein catheter. Blood samples (heparinised) were collected from the catheter of an unanaesthetised, unrestrained rat, 5 min prior to PAR2 antagonist 52 administration (10 mg/kg p.o.) and 30 min, 1-6, 8 and 24 h post-administration. Rats not implanted with a catheter were given PAR2 antagonist 52 (10 mg/kg/day p.o.) four days consecutively (n=6). On the fifth day, plasma, cerebrospinal fluid (CSF), paw tissue and intraperitoneal adipose were collected for LCMS analysis.

[3] = Pharmacokinetics, four consecutive daily oral doses; conditions: 10 mg/kg/day p.o. for 4 days
Description: as §1

[4] = male, Wistar, rat, 10 mg/kg oral gavage, plasma

CC[C@H](C)[C@@H](NC(=O)[C@H](CC1CCCCC1)NC(=O)c1ccno1)C(=O)N1CCC2(C=Cc3ccccc32)CC1 [Compound 52]
body weight gain ([1]; 10 mg/kg/day oral, weeks 8-16): prevention
metabolic indicators after 16 weeks of HCHF feeding ([1]; 10 mg/kg/day oral, weeks 8-16): attenuated or reversed
total fat mass ([1]; 10 mg/kg/day oral, weeks 8-16): prevention
visceral (abdominal) fat deposition ([1]; 10 mg/kg/day oral, weeks 8-16): prevention
increased steatosis ([1]; HCHF rats): prevented
M1-specific proinflammatory genes in adipose tissue ([1]; HCHF-fed rats): drastic decreased
M2-specific genes (Mcr2, Mgl1, Ym1, Arg1) in adipose tissue ([1]; HCHF-fed rats): restored or upregulated
altered Pparg, Ucp2 and Adipoq genes in retroperitoneal adipose tissue ([1]; HCHF-fed rats): attenuated these changes
altered gene expression in skeletal muscle and pancreas ([1]; HCHF-fed rats): attenuated this altered gene expression
development of diet-induced cardiac fibrosis (collagen deposition) ([1]; HCHF-fed rats): potent inhibitory effect
insulin tolerance test ([1]; HCHF-fed rats): improved responsiveness to insulin; also recorded: comparable insulin sensitivity to untreated CS-fed rats
oral glucose tolerance test ([1]; HCHF-fed rats): improved glucose tolerance
pancreatic genes Glut2 and Beta2 ([1]; suppressed in HCHF-fed rats): restored; also recorded: normalized
liver genes Pparg, Srebf1, Ucp2, Ppargc1a, Cpt and Pnpla2 ([1]; treated versus untreated HCHF rats): upregulation
pancreatic genes Iapp, Atf3, Fas and Id-1 upregulated in HCHF rats ([1]; treatment in vivo): attenuated
elevated triglycerides and systolic blood pressure ([1]; treatment weeks 8-16): except for elevated triglycerides and systolic blood pressure
increase in PAR2 expression in whole adipose, adipocyte and stromovascular cells ([1]; treatment weeks 8-16): prevented
metabolic parameters elevated on HCHF diet (glucose and insulin tolerance, plasma lipids, liver enzymes, cardiac structure and function) ([1]; treatment weeks 8-16): attenuated
presence in plasma after 24 h ([2]; 10 mg/kg oral gavage): No PAR2 antagonist 52 was present
concentration at 3 h ([2]; Wistar, rat, paw tissue homogenate, po, 3 h post administration, 10 mg/kg p.o., LCMS/MS, read-out: concentration in paw tissue homogenates): 35 nM
bioavailability ([2]; male, Wistar, rat, plasma, po, 10 mg/kg, 10 mg/kg p.o., from AUC 0-6 h, read-out: oral bioavailability F): 55%
Cmax [2, 4]: 1700 ± 400 nM
Tmax [2, 4]: 4 ± 0.6 h
half-life [2, 4]: 67.8 ± 7.8 min
Cp after fourth dose greater than the single-dose Cp at 24 h [3]: ~30%
concentration at 5 day ([3]; Wistar, rat, cerebrospinal fluid, oral, read-out: concentration in cerebral spinal fluid (none detected, LCMS/MS detection limit)): < 1.8 nM
Kp at 24 h ([3]; Wistar, rat, intraperitoneal adipose / plasma, oral, read-out: intraperitoneal adipose concentration as share of Cp at 24 h): ~0.3
concentration at 5 day ([3]; Wistar, rat, intraperitoneal adipose, oral, read-out: concentration in intraperitoneal adipose): 150 ± 20 nM
concentration at 24 h ([3]; Wistar, rat, plasma, oral, read-out: plasma concentration Cp at 24 h after the fourth dose): 500 ± 100 nM

From patent publication US9868763B2, “Modulators of protease activated receptors” (The University of Queensland, priority 2011, dated 2018)
